Data taken from US6828318B2 (priority 2000, dated 2004).
Counter-ions that a name gives are not always drawn.

Legend:
[1] = molecular target: PCP site of the NMDA receptor; assay: NMDA receptor binding: displacement of [3H]-MK-801 from rat cortical homogenates; conditions: rat cortical membranes, 5 nM [3H]-MK-801, 10 μM glutamate, 10 μM glycine; read-out: IC50, potency to displace [3H]-MK-801 from rat cortical homogenates
From the text: The NMDA receptor contains several distinct binding domains that can regulate opening of the cationic channel. The phencyclidine (PCP) site of the NMDA receptor can be radiolabeled with [^3H]-(+)-5-methyl-10,11-dihydro-5H-dibenzo[a,d]cyclohepten-5,10-imine hydrogen maleate, [^3H-MK-801]. The following describes the procedure for determining the affinity of compounds for the PCP site in rat cortical membranes.
Frozen rat cortex, homogenized in 10 volumes of ice-cold 0.32-M sucrose is centrifuged at 1,000 g for 12 min and the supernatant stored on ice whilst the pellet is resuspended, rehomogenized and recentrifuged twice more. The three final supernatants are pooled and centrifuged at 30,000 g for 40 min at 4° C. to yield P2 pellets. These are resuspended in ice-cold distilled water, and centrifuged at 30,000 g for 50 min at 4° C. Following three further washes in distilled water, the P2 pellets are stored at −20° C. for at least 18 h. On the day of the assay, membrane pellets are thawed at room temperature, resuspended in ice-cold distilled water and centrifuged at 30,000 g for 20 min. The pellets are resuspended in 50-mM tris-HCl (pH:7.4) and recentrifuged twice more before being resuspended in tris-HCl for immediate use in the assay. Binding assays are performed at equilibrium in a total volume of 200 μL, containing [^3H]-MK-801 (5-nM final conc.), 10-μM glutamate, 10-μM glycine, 160 μL of membrane preparation and additional drugs where appropriate. Non-specific binding is determined using MK-801 (10-μM). The assay is incubated for 120 min at room temperature. The incubation is terminated by rapid filtration through Whatman GF/B filters (pre-soaked in 0.1% PEI solution). The assay tubes and filters are washed five times with 1 mL of ice-cold assay buffer. The filters are placed in poly-Q mini vials with approximately 5 mL of scintillation fluid. The vials are then shaken and left for at least 8 h before being counted on a liquid scintillation counter. To determine the free ligand concentration 3 aliquots (20 μL) of the [^3H]-MK-801 working solution are also counted. Concentration response data for drugs is analysed using a 4 parameter equation fitted by non-linear regression. This yields the half maximally effective drug concentration (IC50) and Hill coefficient.

male Sprague Dawley rats [2] = assay: Assessment of analgesia: sub-plantar formalin injection into the rat hind paw; assay type: in vivo; conditions: rat formalin test, second phase t=5 to t=30 min, drug 20 min before formalin
Experimental: Analgesia testing was performed in male Sprague Dawley rats weighing 200-250 g. Drugs were administered 20 minutes prior to a sub-plantar injection of formalin into the right hind paw. The characteristic nociceptive behavioural responses elicited by this injection were rated on a scale from “0”=no effect through to “3”=effect of maximal intensity. As with side effect ratings, all observations were made blind to treatment condition. Ratings of nociception related behaviours were made in two time periods, one from the time of injection for a further five minutes (t=0 to t=5 min), and a second from t=5 min to t=30 min. The response to formalin injection in this model is biphasic, the first phase occurring during the first five minutes consists of a primary inflammation related response. The second phase, occurring over the subsequent 30 minutes is a delayed phase in which the phenomenon of “wind up” or neurally mediated hyperalgesia, is thought to occur. It is the second phase of response that has relevance to sciatica, diabetic neuropathy and other neuropathic chronic pain states. Responses to test compounds were assessed during this second phase from t=5 min to t=30 min. Data were analysed by means of Median tests followed by post hoc Bonferroni corrected Mann-Whitney U-tests.

male Sprague Dawley rats [3] = assay: Assessment of side-effect liability (PCP syndrome), behavioural rating; assay type: in vivo, rat
Experimental: Side effect liability was assessed by utilising a standardised […] rating of behaviours recognised to be elicited by prototypical psychotomimetic NMDA receptor channel blockers such as phencyclidine and aptiganel (Cerestat™), similar to those reported by Martin et al., Life Sci 1979 24:1699-1703. Groups of eight male Sprague Dawley rats weighing 250-280 g. were placed in Plexiglass chambers and administered test compounds. After 20 minutes the percentage of rats in each group showing the behaviours noted in Table 2 was rated.
Ratings were plotted on ethograms to illustrate the profile of effect of each test compound.

Structure (SMILES)	melting point	IC50 [1] [µM]	Minimum effective dose on nociception related behaviours (male Sprague Dawley rats [2]) [mg/kg]	other results
NCCC1(c2ccccc2)C2CC3CC(C2)CC1C3 (centres unmarked) (as salt: hydrochloride) [Example 1, 2-[2-(2-Phenyl)adamantyl]ethylamine hydrochloride]	278 to 281 °C (dec.)			
NCCC1(c2cccs2)C2CC3CC(C2)CC1C3 (centres unmarked) [Example 2, 2-[2-[2-(2-Thienyl)]adamantyl]ethylamine hydrochloride]		2.7 ± 0.54		
Cc1ccc(C2(CC(C)N)C3CC4CC(C3)CC2C4)cc1 (centres unmarked) (as salt: hydrochloride)	344 to 346 °C			
NCCC1(c2ccccc2)C2CC3CC(C2)CC1C3 (centres unmarked) [Example 1, 2-[2-(2-Phenyl)adamantyl]ethylamine hydrochloride]		1.09 ± 0.4	20	Elicitation of PCP syndrome (PCP related behaviours) (male Sprague Dawley rats [3]; rats, intraperitoneal, twenty minutes prior to test, groups of n=8, hydrochloride): no tendency to elicit “PCP syndrome.”
NCCC1(c2cccs2)C2CC3CC(C2)CC1C3 (centres unmarked) (as salt: hydrochloride) [Example 2, 2-[2-[2-(2-Thienyl)]adamantyl]ethylamine hydrochloride]	250.6 to 251.9 °C			
NCCC1(Cc2ccccc2)C2CC3CC(C2)CC1C3 (centres unmarked) (as salt: hydrochloride)	195.8 to 196.8 °C			
CC12CC3CC(C)(C1)CC(N)(C3)C2 [Memantine, reference compound]		6.5 ± 0.94	10	Elicitation of PCP syndrome (PCP related behaviours) (male Sprague Dawley rats [3]; rat, in vivo, ip): elicits “PCP syndrome”
CNC1(c2ccccc2Cl)CCCCC1=O (centres unmarked) [Ketamine, reference compound]		6.51 ± 4.54	20	Elicitation of PCP syndrome (PCP related behaviours) (male Sprague Dawley rats [3]; rats, intraperitoneal, twenty minutes prior to test, groups of n=8): produces “PCP syndrome”
